{"source": "patent US6416735B1", "about": "(priority 1999, dated 2002)", "key": {"[1]": {"molecular_target": "α7 nAChR (Rattus norvegicus, UniProt Q05941)", "sequence (Q05941 23-502)": "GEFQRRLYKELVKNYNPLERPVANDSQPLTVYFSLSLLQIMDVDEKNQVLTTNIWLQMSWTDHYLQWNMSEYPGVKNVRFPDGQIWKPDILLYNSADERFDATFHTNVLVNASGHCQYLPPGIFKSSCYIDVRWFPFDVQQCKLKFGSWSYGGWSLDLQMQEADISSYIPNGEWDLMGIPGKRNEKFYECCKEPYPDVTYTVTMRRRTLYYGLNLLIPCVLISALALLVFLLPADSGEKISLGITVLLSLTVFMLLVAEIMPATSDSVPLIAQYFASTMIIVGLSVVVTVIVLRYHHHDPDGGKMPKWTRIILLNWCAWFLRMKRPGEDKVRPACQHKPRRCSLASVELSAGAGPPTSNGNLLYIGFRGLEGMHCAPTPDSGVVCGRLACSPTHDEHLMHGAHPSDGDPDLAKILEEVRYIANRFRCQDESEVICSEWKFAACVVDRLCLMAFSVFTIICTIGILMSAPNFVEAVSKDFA", "assay": "biochemical", "format": "binding"}, "[2]": {"details": "in vivo; cited from earlier work"}, "[3]": {"molecular_target": "α4β2 nAChRs (Rattus norvegicus, UniProt P09483+P12390)", "sequence (P12390 25-500)": "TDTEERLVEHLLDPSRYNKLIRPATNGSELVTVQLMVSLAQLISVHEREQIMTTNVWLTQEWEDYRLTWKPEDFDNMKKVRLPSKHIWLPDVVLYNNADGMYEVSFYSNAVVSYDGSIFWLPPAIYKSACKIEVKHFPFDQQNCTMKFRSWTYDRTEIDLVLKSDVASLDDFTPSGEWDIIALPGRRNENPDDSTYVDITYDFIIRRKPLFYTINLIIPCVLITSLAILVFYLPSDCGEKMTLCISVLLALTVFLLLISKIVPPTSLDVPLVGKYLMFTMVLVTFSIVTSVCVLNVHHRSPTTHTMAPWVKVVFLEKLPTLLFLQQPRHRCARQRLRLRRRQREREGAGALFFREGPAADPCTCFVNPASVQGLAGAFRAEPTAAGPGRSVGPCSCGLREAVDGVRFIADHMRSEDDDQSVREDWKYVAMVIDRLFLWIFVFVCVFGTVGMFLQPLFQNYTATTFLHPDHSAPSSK", "sequence (P09483 31-630)": "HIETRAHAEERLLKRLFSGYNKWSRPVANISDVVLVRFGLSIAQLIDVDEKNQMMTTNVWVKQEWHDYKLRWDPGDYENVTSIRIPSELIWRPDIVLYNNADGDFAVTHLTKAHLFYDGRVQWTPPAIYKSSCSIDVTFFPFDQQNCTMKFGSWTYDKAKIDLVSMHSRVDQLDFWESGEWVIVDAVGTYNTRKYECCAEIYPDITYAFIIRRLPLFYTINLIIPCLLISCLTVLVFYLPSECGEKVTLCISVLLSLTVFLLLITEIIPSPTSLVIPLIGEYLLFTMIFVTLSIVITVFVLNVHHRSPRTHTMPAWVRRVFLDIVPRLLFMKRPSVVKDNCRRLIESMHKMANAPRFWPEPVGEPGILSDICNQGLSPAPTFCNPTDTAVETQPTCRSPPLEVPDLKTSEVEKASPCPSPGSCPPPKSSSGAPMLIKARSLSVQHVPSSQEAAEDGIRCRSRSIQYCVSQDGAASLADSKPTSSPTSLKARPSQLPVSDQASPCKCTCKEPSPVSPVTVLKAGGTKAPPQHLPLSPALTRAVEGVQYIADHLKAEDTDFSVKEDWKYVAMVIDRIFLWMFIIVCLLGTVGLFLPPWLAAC", "assay": "biochemical", "format": "binding"}, "[4]": {"details": "read-out: KI, inhibition of [^125I]Iodo-MLA binding"}}, "note": "Where a name gives a salt, the structure may show the parent alone. Read-outs that look alike come from different tables or passages of the source.", "data": [{"molecule": "CCN1CC2(COC(=O)c3cc(I)ccc3N3C(=O)CC(C)C3=O)CCC(OC)C34C5CC6C(OC)CC(O)(C5C6OC)C(O)(C(OC)C23)C14", "note": "(stereo not shown) (as salt: citrate) [iodo-MLA, Iodo-methyllycaconitine]", "values": [{"measurement": "melting point", "value": "115 to 116", "unit": "°C"}]}, {"molecule": "CN1CCCC1c1cccnc1", "note": "(single isomer, unassigned; (-)) [(-)-Nicotine]", "values": [{"measurement": "displacing [^125I]iodo-MLA (in words)", "setting": "[1]", "value": "weak or ineffective"}]}, {"molecule": "C(=Cc1ccccc1)C=C1CCCN=C1c1cccnc1", "note": "[3-Cinnamylidene-anabasine]", "values": [{"measurement": "Ki", "setting": "[1]; [4]", "value": "15.3 ± 2", "unit": "nM"}]}, {"molecule": "CO[C@H]1CC=C2CCN3CCC4=C(CC(=O)OC4)[C@]23C1", "note": "[Dihydro-β-erythroidine]", "values": [{"measurement": "displacing [^125I]iodo-MLA (in words)", "setting": "[1]", "value": "weak or ineffective"}, {"measurement": "Ki", "setting": "[1]; [4]", "value": "> 10000", "unit": "nM"}]}, {"molecule": "CCN1C[C@]2(COC(=O)c3ccccc3N3C(=O)C[C@H](C)C3=O)CC[C@H](OC)[C@@]34[C@@H]5C[C@H]6[C@H](OC)[C@@H]5[C@](O)(C[C@@H]6OC)[C@@](O)([C@@H](OC)[C@H]23)[C@@H]14", "note": "[MLA, Methyllycaconitine]", "values": [{"measurement": "crossing of the blood-brain barrier", "setting": "[2]", "value": "crosses the blood-brain barrier"}]}, {"molecule": "CNC1(C)C2CCC(C2)C1(C)C", "note": "(stereo not shown) [Mecamylamine]", "values": [{"measurement": "Ki", "setting": "[1]", "value": "> 10000", "unit": "nM"}, {"measurement": "displacing [^125I]iodo-MLA (in words)", "setting": "[1]", "value": "weak or ineffective"}]}, {"molecule": "CCN1CC2(COC(=O)c3cc(I)ccc3N3C(=O)CC(C)C3=O)CCC(OC)C34C5CC6C(OC)CC(O)(C5C6OC)C(O)(C(OC)C23)C14", "note": "(stereo not shown) [iodo-MLA, Iodo-methyllycaconitine]", "values": [{"measurement": "Ki", "setting": "[3]", "value": "> 1000", "unit": "nM"}, {"measurement": "affinity at α4β2 nAChRs (in words)", "setting": "[3]", "value": "poor affinity"}]}, {"molecule": "α-Bungarotoxin", "values": [{"measurement": "Ki for displacing [^125I]iodo-MLA (in words)", "setting": "[1]", "value": "low nanomolar range"}, {"measurement": "Ki", "setting": "[1]; [4]", "value": "2 ± 0.1", "unit": "nM"}, {"measurement": "crossing of the blood-brain barrier", "setting": "[2]", "value": "does not cross the blood-brain barrier"}]}]}
